Data taken from ChEMBL document CHEMBL1201862, “PubChem BioAssay data set” (2004).
Calls of active or inactive are those of the source.

Assays:
[1] = target: Peroxisome proliferator-activated receptor gamma/Nuclear receptor coactivator 1 (Homo sapiens, UniProt P37231); assay: (§1) TR-FRET dose response biochemical High Throughput Screening assay for agonists of the steroid receptor coactivator 1 (SRC-1) recruitment by the peroxisome proliferator-activated receptor gamma (PPAR gamma): non-selective agonists. [Related pubchem assays (depositor defined):AID1300, AID1808, AID504735, AID631]; format: protein assay
[2] = target: Peroxisome proliferator-activated receptor gamma/Nuclear receptor coactivator 3 (Homo sapiens, UniProt P37231); assay: as §1, with “3 (SRC-3)” for “1 (SRC-1)”, “assays: 1301 (Confirmation screen.), 1048 (Primary screen.)]” for “assays (depositor defined):AID1300, AID1808, AID504735, AID631]”; format: functional
[3] = target: Peroxisome proliferator-activated receptor gamma/Nuclear receptor coactivator 2 (Homo sapiens, UniProt P37231); assay: TR-FRET dose response biochemical High Throughput Screening assay for agonists of the steroid receptor coactivator 2 (SRC-2) recruitment by the peroxisome proliferator-activated receptor gamma (PPAR gamma): non-selective agonists. [Related pubchem assays: 1297, 1032 ]; format: functional
[4] = target: T1, Rac GTPase-activating protein 1 (Homo sapiens, UniProt Q9H0H5); assay: MgcRacGAP GTPase-activating activity inhibitors, confirmation, biochemical, ADP Hunter fluorescence, primary and confirmatory (AID 624330); format: functional
T1 sequence (Q9H0H5 whole entry): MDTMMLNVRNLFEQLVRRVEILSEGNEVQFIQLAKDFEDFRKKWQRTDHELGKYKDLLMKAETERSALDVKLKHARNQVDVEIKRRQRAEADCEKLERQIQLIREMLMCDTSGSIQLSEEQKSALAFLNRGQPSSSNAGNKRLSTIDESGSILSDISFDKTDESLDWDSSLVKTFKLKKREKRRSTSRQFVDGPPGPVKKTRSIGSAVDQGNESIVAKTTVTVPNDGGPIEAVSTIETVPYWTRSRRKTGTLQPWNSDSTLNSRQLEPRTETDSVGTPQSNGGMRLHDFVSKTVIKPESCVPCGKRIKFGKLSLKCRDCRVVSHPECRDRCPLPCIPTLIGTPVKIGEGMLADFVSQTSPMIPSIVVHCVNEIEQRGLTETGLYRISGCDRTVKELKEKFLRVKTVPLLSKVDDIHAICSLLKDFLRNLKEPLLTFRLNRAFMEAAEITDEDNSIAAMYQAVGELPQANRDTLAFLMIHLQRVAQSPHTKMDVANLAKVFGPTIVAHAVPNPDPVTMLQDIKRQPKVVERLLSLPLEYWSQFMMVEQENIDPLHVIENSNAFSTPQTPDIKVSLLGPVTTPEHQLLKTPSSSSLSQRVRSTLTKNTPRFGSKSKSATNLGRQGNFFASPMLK

[5] = THP-1 cell cytotoxicity, dose response, cytotoxicity control for Vif-APOBEC3G degradation inhibitor project, THP-1 cells (AID 1117359); format: functional; settings: Human immunodeficiency virus 1, THP-1
[6] = target: FAD-linked sulfhydryl oxidase ALR (Homo sapiens, UniProt P55789); assay: inhibitors of human ALR sulfhydryl oxidase, dose response, biochemical, H2O2 detection, luminescence, cherry-pick (AID 493248)
[7] = inhibitors of Vif binding to APOBEC3G peptide, primary screen, biochemical, TR-FRET, GST-Vif 1-94, biotin-A3G peptide, dose response retest (AID 1117319); format: functional;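 also: TR-FRET signal of purified GST-Vif binding a biotinylated A3G peptide; inhibitors lower the FRET signal by blocking Vif and A3G binding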
HEK293 = assay: cells; format: functional, cell-based; settings: Homo sapiens
[8] = target: T2, Nuclear receptor subfamily 0 group B member 1 (Homo sapiens, UniProt P51843); assay: Luminescence-based cell-based high throughput dose response assay for inhibitors of the orphan nuclear receptor subfamily 0, group B, member 1 (DAX1; NR0B1). [Related pubchem assays (depositor defined):AID504766, AID504790]; format: functional
T2 sequence (P51843 whole entry): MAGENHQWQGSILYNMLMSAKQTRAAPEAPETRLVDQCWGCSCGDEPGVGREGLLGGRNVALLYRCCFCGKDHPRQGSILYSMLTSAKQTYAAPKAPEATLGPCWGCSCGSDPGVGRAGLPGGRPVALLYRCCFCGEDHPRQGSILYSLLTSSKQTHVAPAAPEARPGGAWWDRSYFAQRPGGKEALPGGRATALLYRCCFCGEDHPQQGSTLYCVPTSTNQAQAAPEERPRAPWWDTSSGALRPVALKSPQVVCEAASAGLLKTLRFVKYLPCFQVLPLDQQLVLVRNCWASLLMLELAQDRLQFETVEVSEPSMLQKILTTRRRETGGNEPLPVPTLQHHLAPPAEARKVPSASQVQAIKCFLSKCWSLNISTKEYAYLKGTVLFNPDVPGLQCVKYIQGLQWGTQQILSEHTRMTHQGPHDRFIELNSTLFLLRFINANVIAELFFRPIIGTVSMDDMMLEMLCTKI

[9] = P. falciparum 3D7-ScDHODH growth inhibitors, dose response, SYBR Green, dry powder samples (AID 1159570); format: functional, cell-based;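 also: parasite growth measured after 72 hours of compound exposure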
[10] = P. falciparum Dd2 growth inhibitors, dose response, SYBR Green, cherry-picked samples (AID 1159567); format: functional, cell-based
[11] = P. falciparum Dd2 growth inhibitors, dose response, SYBR Green, dry powder samples (AID 1159566); format: functional, cell-based;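 also: potency for growth inhibition with lower SYBR green DNA signal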
[12] = P. falciparum ATP4 D1247Y mutant growth inhibitors, dose response, NITD609-resistant line, SYBR Green, dry powder (AID 1159571); format: functional, cell-based;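 also: parasites synchronized at ring stage by sorbitol before testing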
Aminopeptidase N = target: T3, Aminopeptidase N (Plasmodium falciparum FcB1/Columbia, UniProt O96935); assay: P. falciparum M1AAP inhibitors, biochemical, fluorogenic H-Leu-NHMec substrate, 1536-well (AID 1445); design: species or system Plasmodium falciparum 3D7, 3D7
T3 sequence (O96935 whole entry): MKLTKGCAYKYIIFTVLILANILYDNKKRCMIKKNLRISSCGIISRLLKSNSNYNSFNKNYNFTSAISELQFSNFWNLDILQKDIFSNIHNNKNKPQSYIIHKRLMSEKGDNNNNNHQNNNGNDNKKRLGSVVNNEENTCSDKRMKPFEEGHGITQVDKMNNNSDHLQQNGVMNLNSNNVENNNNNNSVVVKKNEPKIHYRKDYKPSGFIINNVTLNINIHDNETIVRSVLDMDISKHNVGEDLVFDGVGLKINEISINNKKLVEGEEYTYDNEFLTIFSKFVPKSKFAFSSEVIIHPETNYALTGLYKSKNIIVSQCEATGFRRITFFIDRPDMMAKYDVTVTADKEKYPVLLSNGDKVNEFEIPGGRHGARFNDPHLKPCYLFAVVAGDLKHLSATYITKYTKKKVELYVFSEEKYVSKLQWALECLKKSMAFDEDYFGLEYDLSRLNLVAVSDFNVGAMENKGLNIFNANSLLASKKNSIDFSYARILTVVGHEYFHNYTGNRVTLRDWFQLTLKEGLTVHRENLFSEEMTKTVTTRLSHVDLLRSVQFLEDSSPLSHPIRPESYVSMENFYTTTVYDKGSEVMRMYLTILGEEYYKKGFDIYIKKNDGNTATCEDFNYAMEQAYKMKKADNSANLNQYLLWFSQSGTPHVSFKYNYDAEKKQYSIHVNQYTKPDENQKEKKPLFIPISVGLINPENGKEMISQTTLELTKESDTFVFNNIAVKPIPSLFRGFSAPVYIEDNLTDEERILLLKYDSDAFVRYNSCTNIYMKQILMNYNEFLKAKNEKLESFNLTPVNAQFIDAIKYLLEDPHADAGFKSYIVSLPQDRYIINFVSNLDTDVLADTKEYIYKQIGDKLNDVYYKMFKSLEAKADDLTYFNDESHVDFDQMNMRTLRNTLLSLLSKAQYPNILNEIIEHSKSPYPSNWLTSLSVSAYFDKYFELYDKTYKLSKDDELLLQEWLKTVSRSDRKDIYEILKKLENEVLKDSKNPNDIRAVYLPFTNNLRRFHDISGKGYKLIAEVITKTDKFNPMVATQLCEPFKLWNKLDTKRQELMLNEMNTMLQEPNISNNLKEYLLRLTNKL

Genome polyprotein = Genome polyprotein (dengue virus type 2, UniProt P29990); assay: Dengue-2 NS5 methyltransferase inhibitors, primary screen, biochemical, confirmation dose response (AID 588689); format: functional
Chain of Genome polyprotein (P29990 2492-3391 limits assumed): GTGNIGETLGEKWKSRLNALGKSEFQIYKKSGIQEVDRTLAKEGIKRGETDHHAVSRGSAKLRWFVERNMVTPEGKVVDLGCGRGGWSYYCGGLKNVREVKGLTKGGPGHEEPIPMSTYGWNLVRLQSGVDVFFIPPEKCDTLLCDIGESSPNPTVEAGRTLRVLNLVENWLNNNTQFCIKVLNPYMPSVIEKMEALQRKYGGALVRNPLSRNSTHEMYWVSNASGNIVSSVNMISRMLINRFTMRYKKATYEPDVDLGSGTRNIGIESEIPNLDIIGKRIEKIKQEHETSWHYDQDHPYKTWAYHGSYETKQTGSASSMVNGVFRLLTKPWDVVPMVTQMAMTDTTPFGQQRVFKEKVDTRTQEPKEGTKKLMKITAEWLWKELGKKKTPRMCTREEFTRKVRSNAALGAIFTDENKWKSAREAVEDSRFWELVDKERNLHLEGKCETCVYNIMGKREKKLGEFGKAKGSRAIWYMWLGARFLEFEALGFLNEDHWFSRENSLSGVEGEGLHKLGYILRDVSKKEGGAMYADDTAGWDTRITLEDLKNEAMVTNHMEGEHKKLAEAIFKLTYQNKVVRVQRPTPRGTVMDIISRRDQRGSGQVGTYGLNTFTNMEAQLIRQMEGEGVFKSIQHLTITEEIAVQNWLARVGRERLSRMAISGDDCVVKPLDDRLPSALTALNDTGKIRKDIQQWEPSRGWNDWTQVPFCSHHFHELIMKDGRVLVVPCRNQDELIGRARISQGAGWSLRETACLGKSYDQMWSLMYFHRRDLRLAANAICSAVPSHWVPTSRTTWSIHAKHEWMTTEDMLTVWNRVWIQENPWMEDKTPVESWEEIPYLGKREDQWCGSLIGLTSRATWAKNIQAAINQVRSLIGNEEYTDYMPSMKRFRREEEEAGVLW

Chain of Peroxisome proliferator-activated receptor gamma/Nuclear receptor coactivator 2 (P37231 whole entry): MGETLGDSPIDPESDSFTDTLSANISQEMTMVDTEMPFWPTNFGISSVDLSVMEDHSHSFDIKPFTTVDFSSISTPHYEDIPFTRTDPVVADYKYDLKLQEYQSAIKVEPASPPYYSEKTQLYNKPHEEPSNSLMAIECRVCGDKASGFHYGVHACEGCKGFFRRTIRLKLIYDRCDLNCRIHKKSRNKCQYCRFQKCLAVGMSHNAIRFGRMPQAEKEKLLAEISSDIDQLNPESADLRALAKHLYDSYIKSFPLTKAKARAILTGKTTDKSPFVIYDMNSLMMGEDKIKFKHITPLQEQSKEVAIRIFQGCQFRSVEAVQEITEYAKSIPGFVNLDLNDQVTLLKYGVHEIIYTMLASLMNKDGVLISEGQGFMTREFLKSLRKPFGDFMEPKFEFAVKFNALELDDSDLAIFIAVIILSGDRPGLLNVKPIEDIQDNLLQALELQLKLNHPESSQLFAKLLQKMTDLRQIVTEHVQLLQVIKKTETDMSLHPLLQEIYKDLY
Chain of Peroxisome proliferator-activated receptor gamma/Nuclear receptor coactivator 2 (Q15596 whole entry, further chain): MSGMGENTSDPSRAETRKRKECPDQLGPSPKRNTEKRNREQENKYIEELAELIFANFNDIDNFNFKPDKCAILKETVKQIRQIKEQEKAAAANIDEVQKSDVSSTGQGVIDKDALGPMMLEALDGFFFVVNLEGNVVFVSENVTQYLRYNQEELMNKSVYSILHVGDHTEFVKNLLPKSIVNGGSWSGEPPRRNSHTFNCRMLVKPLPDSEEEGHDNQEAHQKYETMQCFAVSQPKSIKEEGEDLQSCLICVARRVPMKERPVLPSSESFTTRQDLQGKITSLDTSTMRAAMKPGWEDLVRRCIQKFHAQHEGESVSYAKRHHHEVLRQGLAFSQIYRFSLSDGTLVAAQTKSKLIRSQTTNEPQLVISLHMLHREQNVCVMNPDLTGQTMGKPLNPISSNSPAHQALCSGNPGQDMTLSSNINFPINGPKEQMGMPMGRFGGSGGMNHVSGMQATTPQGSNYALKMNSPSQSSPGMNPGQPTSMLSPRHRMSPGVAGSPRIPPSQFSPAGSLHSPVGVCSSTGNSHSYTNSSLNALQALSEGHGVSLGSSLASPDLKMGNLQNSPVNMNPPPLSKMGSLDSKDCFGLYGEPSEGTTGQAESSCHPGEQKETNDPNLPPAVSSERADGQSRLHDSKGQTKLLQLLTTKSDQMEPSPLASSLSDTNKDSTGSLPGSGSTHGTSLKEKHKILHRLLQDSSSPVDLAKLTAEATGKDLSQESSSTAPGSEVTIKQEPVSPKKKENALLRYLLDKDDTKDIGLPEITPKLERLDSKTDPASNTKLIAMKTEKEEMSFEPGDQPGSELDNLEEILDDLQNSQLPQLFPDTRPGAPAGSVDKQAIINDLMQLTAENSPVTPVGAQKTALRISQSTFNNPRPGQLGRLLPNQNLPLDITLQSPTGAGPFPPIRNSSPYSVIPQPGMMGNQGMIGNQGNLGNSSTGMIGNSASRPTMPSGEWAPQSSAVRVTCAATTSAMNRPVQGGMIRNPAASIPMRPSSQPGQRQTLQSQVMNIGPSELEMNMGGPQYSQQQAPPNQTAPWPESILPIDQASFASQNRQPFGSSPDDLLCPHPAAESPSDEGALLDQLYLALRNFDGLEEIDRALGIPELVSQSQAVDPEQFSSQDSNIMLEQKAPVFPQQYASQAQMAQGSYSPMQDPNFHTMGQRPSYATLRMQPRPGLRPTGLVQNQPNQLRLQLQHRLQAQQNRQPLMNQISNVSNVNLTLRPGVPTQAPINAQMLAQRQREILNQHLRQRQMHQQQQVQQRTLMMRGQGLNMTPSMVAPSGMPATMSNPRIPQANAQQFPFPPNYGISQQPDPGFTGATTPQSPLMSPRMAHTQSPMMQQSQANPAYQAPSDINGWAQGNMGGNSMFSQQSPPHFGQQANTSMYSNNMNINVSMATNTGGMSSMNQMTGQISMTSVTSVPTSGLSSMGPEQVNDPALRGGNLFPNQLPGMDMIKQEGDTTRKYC
Chain of Peroxisome proliferator-activated receptor gamma/Nuclear receptor coactivator 3 (P37231 whole entry): as the sequence (P37231 whole entry) above
Chain of Peroxisome proliferator-activated receptor gamma/Nuclear receptor coactivator 3 (Q9Y6Q9 whole entry, further chain): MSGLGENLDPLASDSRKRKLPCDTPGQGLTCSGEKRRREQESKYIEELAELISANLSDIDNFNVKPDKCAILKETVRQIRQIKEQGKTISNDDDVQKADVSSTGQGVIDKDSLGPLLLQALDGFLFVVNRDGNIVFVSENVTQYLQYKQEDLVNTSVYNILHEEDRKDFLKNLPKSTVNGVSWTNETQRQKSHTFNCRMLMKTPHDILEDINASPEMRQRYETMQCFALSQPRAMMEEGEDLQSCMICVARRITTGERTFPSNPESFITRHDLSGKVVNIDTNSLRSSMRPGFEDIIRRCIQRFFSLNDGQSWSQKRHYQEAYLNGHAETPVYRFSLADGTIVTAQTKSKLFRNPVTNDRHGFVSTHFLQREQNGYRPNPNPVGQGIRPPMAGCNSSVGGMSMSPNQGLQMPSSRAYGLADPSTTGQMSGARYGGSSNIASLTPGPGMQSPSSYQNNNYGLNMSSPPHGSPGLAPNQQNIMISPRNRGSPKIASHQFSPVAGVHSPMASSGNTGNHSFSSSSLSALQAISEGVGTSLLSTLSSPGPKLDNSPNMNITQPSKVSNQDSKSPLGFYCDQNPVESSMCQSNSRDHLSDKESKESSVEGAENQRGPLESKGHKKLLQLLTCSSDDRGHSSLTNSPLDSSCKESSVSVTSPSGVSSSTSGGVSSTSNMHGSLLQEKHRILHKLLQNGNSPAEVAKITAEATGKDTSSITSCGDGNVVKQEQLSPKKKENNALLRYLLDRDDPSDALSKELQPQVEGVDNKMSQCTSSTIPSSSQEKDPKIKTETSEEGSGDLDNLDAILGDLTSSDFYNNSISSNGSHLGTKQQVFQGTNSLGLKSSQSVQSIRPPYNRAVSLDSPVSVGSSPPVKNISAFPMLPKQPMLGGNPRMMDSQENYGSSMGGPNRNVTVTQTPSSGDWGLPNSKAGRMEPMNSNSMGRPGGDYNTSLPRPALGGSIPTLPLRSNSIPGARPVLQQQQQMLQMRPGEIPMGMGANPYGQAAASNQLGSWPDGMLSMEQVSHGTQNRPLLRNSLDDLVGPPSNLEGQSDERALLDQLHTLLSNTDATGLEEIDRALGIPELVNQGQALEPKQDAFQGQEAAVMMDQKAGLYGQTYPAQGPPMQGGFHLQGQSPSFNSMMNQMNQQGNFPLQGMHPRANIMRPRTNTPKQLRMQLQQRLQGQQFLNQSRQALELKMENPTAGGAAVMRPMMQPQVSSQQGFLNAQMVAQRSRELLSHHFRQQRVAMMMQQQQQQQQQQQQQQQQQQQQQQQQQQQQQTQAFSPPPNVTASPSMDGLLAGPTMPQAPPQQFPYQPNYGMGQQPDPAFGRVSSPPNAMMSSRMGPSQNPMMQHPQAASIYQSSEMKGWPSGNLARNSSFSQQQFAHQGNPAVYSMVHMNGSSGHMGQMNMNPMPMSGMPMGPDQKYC
Chain of FAD-linked sulfhydryl oxidase ALR (P55789 whole entry): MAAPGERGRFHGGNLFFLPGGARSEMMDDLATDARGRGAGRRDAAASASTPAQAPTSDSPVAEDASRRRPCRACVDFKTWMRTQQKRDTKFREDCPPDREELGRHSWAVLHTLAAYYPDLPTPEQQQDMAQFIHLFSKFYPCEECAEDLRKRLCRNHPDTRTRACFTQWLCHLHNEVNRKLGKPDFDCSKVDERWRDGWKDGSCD

## CC(Sc1nc(N2CCCCC2)c2c(c1C#N)CCCC2)C(=O)O (stereo unspecified)
[1]
  EC50: 33.9 µM (inactive)
[2]
  EC50: > 79.4 µM (not active)
[3]
  EC50: 64.9 µM (not active)

## Nc1ccc(N=Nc2ccc(O)cc2)c(N)n1
[4]
  IC50: 8.44 µM (active)
[5]
  CC50: 25.8 µM (active)

## COc1ccc(Br)cc1-c1nc(CCl)cs1
[1]
  EC50: 9.93 µM (active)
[2]
  EC50: > 79.4 µM (not active)
[3]
  EC50: 5.52 µM (active)
[6]
  AC50: 14.1 µM (active)

## Cc1ccc(C(=O)OCc2cn3ccccc3n2)cc1
[7]
  IC50: > 100 µM (active)

## COc1ccc([N+](=O)[O-])cc1NC(=S)NC(C)=O
HEK293
  IC50: > 67.6 µM (inactive)
[8]
  IC50: > 67.6 µM (inactive)

## O=C(Nc1ccccc1)N1CCCCN2[C@@H](CO)[C@H](c3ccc(C#Cc4cccnc4)cc3)[C@@H]2C1
[9]
  AC50: 0.476 µM (active)
[10]
  AC50: 0.633 µM (active)
[11]
  AC50: 0.552 µM (active)
[12]
  AC50: 0.573 µM (active)

## CCc1c(C)c2ccc(O)c(CN(C)C)c2oc1=O
Aminopeptidase N
  IC50: 28.9 µM (active)

## O=C(O)COc1ccccc1/C=N/Nc1ccc(S(=O)(=O)Nc2ccc(Cl)cc2)cc1[N+](=O)[O-]
Aminopeptidase N
  IC50: 38.9 µM (active)
Genome polyprotein
  IC50: 36.7 µM (active)

## COc1ccccc1NC(=O)N1CCCC(C(=O)Nc2cccc(C)c2C)C1 (stereo unspecified)
HEK293
  IC50: > 67.6 µM (inactive)
[8]
  IC50: > 67.6 µM (inactive)
